Read-outs that look alike come from different tables or passages of the source.
Legend:
[1] = tested on: NMU-induced mammary carcinomas; conditions: rat; cited from earlier work
[2] = tested on: refractory acute lymphocytic leukemia; experiment: TARGRETIN in combination with low dose chemotherapy in two patients with refractory acute lymphocytic leukemia; format: in vivo, human; conditions: both patients
Protocol: In these experiments, two patients with refractory acute lymphocytic leukemia were treated with TARGRETIN in combination with low dose chemotherapy.

melanoma = conditions: single daily oral dose of 450 mg/m^2 in capsule form; cited from earlier work
[3] = tested on: non-small-cell lung carcinoma; conditions: oral, in combination with cisplatin and vinorelbin, previously untreated patients; cited from earlier work
[4] = tested on: acute myeloid leukemia (AML); format: in vivo
Protocol: In these studies, five patients with relapsed refractory AML were treated with TARGRETIN monotherapy.
The first patient had failed induction chemotherapy, had fungal pneumonia, and active leukemia with no immune system. This patient was sent home under hospice care, but given TARGRETIN to take orally in a pill formulation. Within a few months, this patient no longer needed hospice care and had returned to work. It is believed that upon administration of TARGRETIN, this patient was able to maintain an immune system, thereby clearing the fungal pneumonia and preventing further fatal infections.
The second patient was a heart transplant patient who developed AML and failed induction chemotherapy as well as a second line of chemotherapy. With active leukemia and no immune system they were placed on TARGRETIN. […] Upon escalation of the TARGRETIN dose it was observed that their neutrophil count continued to increase and the leukemia count dropped. This increase in neutrophil count and decrease in leukemia count continued with each dose escalation until the patient was taking six TARGRETIN capsules a day. […] This syndrome is a cell differentiation disorder wherein leukemia cells differentiate into normal immune cells. While this syndrome is good in that it boosts the immune system while decreasing the leukemia count, cytokines released by the differentiating neutrophils can cause a pulmonary syndrome. At six TARGRETIN capsules a day the second patient developed a syndrome exactly like that observed in ATRA administration. TARGRETIN treatment was stopped and within one week the neutrophil count dropped from 1500 to 200 and the pulmonary syndrome resolved. TARGRETIN treatment was then restarted at three capsules daily and the neutrophil count returned to 600. This patient continued treatment for an additional 9 months at which time they developed an infection and died. At the time of death their leukemia was still well under control.
The third patient had failed induction therapy and was suffering from active AML with disseminated intravascular coagulation (DIC), a blood clotting disorder relating to active leukemia. This patient was completely bed-ridden. It was believed that they could not tolerate further chemotherapy and was placed on TARGRETIN. […] They also developed a small number of immune cells and was able to return to their home where their physical condition continued to improve. This patient lived for approximately 4.5 months before they developed progressive leukemia. At that point they declined further therapy and expired.
The fourth patient had raging AML. This patient was placed on TARGRETIN but expired within 3 days of starting treatment. It is believed that the TARGRETIN treatment may have been started too late in the course of this patient's disease to provide an effect.
The fifth patient treated with TARGRETIN was suffering from a relapse after already having undergone an allogeneic bone marrow transplant, one of the most aggressive treatments possible for AML. […] This patient ultimately expired, however, from complications relating to their bone marrow transplant.

[5] = tested on: T-cell non-Hodgkin's lymphoma; experiment: TARGRETIN in patients with T-cell non-Hodgkin's lymphomas other than cutaneous T-cell lymphoma; format: in vivo, human
Protocol: Specifically, TARGRETIN was administered to a patient suffering from a post-transplant lymphoproliferative disorder type lymphoma. This is a T-cell non-Hodgkin's lymphoma related to organ transplantation. This patient had horrific lymphoma with involvement of their cerebral spinal fluid.
TARGRETIN was administered to a second patient suffering from a rare type of T-cell lymphoma, an angiocentric T-cell lymphoma.

[6] = tested on: squamous cell carcinoma of the head and neck; conditions: cited from earlier work
[7] = Tolerability of TARGRETIN dosing regimes in patients; format: in vivo, human
Source text: Further, by “effective amount” as used herein, it is meant a concentration of TARGRETIN administered by a selected route and dosing schedule which lessens or decreases severity of a symptom of the disease state or condition from which the patient is suffering and/or a concentration of TARGRETIN which increases neutrophil count in a patient and/or a concentration of TARGRETIN which increases the efficacy of a co-administered cancer chemotherapeutic agent. Such amounts can be routinely determined by those skilled in the art based upon the teachings herein as well as what is known in the art about TARGRETIN with respect to treatment of cutaneous T-cell lymphoma. […] Further, the Food and Drug Administration's approved dose for TARGRETIN in the treatment of cutaneous T-cell lymphoma is 300 mg/M^2. It is expected that similar dosages will also be effective in treating autoimmune diseases or disorders, and in particular graft versus host disease, as well as organ transplant rejection.

eczema dermatitis = experiment: TARGRETIN as substitute for tacrolimus and steroids in eczema dermatitis; conditions: in vivo

C=C(c1ccc(C(=O)O)cc1)c1cc2c(cc1C)C(C)(C)CCC2(C)C [TARGRETIN]
efficacy as chemopreventative and chemotherapeutic agent [1]: efficacious
efficacy of combination treatment [2]: significantly greater than expected
efficacy against melanoma (melanoma): ineffective
response rate and survival [3]: acceptable phase II response rates with better-than expected survival
immune response upon initiation of treatment ([4]; fifth patient, relapse after allogeneic bone marrow transplant): mounted an immune system response
duration leukemia kept under control ([4]; first patient, oral pill formulation): kept under control for nine months
time to death after starting treatment ([4]; fourth patient, raging AML): ≤ 3 days
adverse event ([4]; human, in vivo): developed a pulmonary syndrome very similar to that seen in patients taking trans retinoic acid (ATRA)
additional duration of treatment, leukemia still well under control at death ([4]; second patient, after restart at three capsules daily): 9 months
neutrophil count ([4]; second patient, at six capsules a day, before treatment was stopped): 1500
neutrophil count ([4]; second patient, treatment restarted at three capsules daily): 600
neutrophil count ([4]; second patient, within one week after TARGRETIN treatment was stopped): 200
change of neutrophil count and leukemia count after start of treatment ([4]; second patient, within one week of treatment): neutrophil count and/or immune system was rising and their leukemia count was dropping
patients exhibiting a positive response (increase in neutrophil count and/or decrease in leukemia count) ([4]; terminal AML, TARGRETIN monotherapy): 4 out of 5
resolution of disseminated intravascular coagulation (DIC) ([4]; third patient): resolved within four days
time lived before progressive leukemia ([4]; third patient): approximately 4.5 months
duration of remission ([5]; patient with angiocentric T-cell lymphoma, prior bone marrow transplant failed): in remission for three months
duration of remission ([5]; patient with post-transplant lymphoproliferative disorder type lymphoma, prior chemotherapy failed): in remission for four months
effect on proliferation [6]: decrease
tolerability ([7]; 100 to 150 mg per meter square of body surface area, ongoing clinical trials): well-tolerated
tolerability ([7]; oral 2-3 capsules a day or 150 to 225 mg a day): without unwanted side effects
efficacy in eczema dermatitis (eczema dermatitis): effective substitute for tacrolimus and steroids
